Patent US20260256792A1, “TREATMENT OF CHRONIC SPONTANEOUS URTICARIA BY ADMINISTERING (R)-2-[3-[4-AMINO-3-(2-FLUORO-4-PHENOXY-PHENYL)PYRAZOLO[3,4-D]PYRIMIDIN-1-YL]PIPERIDINE-1-CARBONYL]-4-METHYL-4-[4-(OXETAN-3-YL)PIPERAZIN-1-YL]PENT-2-ENENITRILE” (priority 2023, published 2026)

Tested on: angioedema in CSU patients
Test: Phase 2 CSU study: angioedema activity score over 7 days (AAS7)
Assay type: in vivo, human
Settings: 400 mg BID; for AAS7 = 0, RRD (%) for rilzabrutinib vs. placebo (95% CI) / AAS7 Post-baseline Mean (SD) / Participants with AAS7 = 0, Responder n (%) / AAS7 % Change difference for rilzabrutinib vs. placebo LS Mean (95% CI) / AAS7 Change difference for rilzabrutinib vs. placebo LS Mean (95% CI) / AAS7 Change from baseline LS Mean (SE) / AAS7 % Change from baseline LS Mean (SE) / AAS7 = 0, Non-responder n (%) / AAS7 = 0, OR (95% CI) for rilzabrutinib vs. placebo: angioedema at baseline; for Non-responder n (%), AAS7 = 0 / OR (95% CI) for rilzabrutinib vs. placebo, AAS7 = 0 / RRD (%) for rilzabrutinib vs. placebo (95% CI), AAS7 = 0 / Responder n (%), AAS7 = 0: outlier removed
Source text: The study comprises a 12 week, randomized, double-blind, placebo-controlled, multi-center, dose-ranging efficacy and safety phase, followed by a 40 week open label extension (OLE) phase (see FIG. 1). The study consists of three phases and an optional OLE phase. […] The weekly angioedema activity score (AAS7) was proposed as a tertiary endpoint. […] Patients were to complete the AAS using the e-diary. The e-diary was to be used once daily on the same time of each day recording of participant's answers to the angioedema activity score over 7 days (AAS7) questionnaire.

`CC(C)(C=C(C#N)C(=O)N1CCC[C@@H](n2nc(-c3ccc(Oc4ccccc4)cc3F)c3c(N)ncnc32)C1)N1CCN(C2COC2)CC1` [rilzabrutinib, (R)-2-[3-[4-amino-3-(2-fluoro-4-phenoxy-phenyl)pyrazolo[3,4-d]pyrimidin-1-yl]piperidine-1-carbonyl]-4-methyl-4-[4-(oxetan-3-yl)piperazin-1-yl]pent-2-enenitrile] was tested, and the “AAS7 = 0, RRD (%) for rilzabrutinib vs. placebo (95% CI)” value (“AAS7 = 0, RRD (%) … (95% CI)” for short) (Week 8, omalizumab-naïve) was 26.4 %, the “AAS7 Post-baseline Mean (SD)” value (Week 8, omalizumab-naïve) was 9.97 (16.69) and the “Participants with AAS7 = 0, Responder n (%)” value (shortened to “Participants … (%)”) (Week 8, omalizumab-naïve) was 13 (50.0) n (%). The “AAS7 % Change difference for rilzabrutinib vs. placebo LS Mean (95% CI)” value (“AAS7 % Change difference … (95% CI)” below) (Week 9, ITT) was −26.88 (−56.35, 2.58) %, the “AAS7 Change difference for rilzabrutinib vs. placebo LS Mean (95% CI)” value (shortened to “AAS7 Change difference … (95% CI)”) (Week 9, ITT) was −11.25 (−21.79, −0.72) and the “AAS7 Change from baseline LS Mean (SE)” value (Week 9, ITT) was −40.70 (4.08). For the same compound, the “AAS7 Post-baseline Mean (SD)” value (Week 9, ITT) was 10.00 (17.78), the “Non-responder n (%), AAS7 = 0” value (Week 9, omalizumab-naïve) was 18 (51.4) n (%) and the “OR (95% CI) for rilzabrutinib vs. placebo, AAS7 = 0” value (Week 9, omalizumab-naïve) was 0.919. For the same compound, the “RRD (%) for rilzabrutinib vs. placebo (95% CI), AAS7 = 0” value (“RRD (%) … (95% CI), AAS7 = 0” for short) (Week 9, omalizumab-naïve) was −2.1 %, the “Responder n (%), AAS7 = 0” value (Week 9, omalizumab-naïve) was 17 (48.6) n (%) and the “AAS7 % Change from baseline LS Mean (SE)” value (Week 9, omalizumab-naïve) was −74.80 (12.27) %. For the same compound, the “AAS7 = 0, Non-responder n (%)” value (Week 9, omalizumab-naïve) was 14 (53.8) n (%), the “AAS7 = 0, OR (95% CI) for rilzabrutinib vs. placebo” value (“AAS7 = 0, OR (95% CI)” below) (Week 9, omalizumab-naïve) was 1.787 and the “AAS7 = 0, RRD (%) … (95% CI)” value (Week 9, omalizumab-naïve) was 14.5 %. For the same compound, the “AAS7 Post-baseline Mean (SD)” value (Week 9, omalizumab-naïve) was 10.87 (18.30), the “Participants … (%)” value (Week 9, omalizumab-naïve) was 12 (46.2) n (%) and the “AAS7 % Change difference … (95% CI)” value (Week 10, ITT) was −15.09 (−55.38, 25.21) %. The “AAS7 % Change from baseline LS Mean (SE)” value (Week 10, ITT) was −64.07 (15.65) %, the “AAS7 Change difference … (95% CI)” value (Week 10, ITT) was −8.79 (−20.40, 2.82) and the “AAS7 Change from baseline LS Mean (SE)” value (Week 10, ITT) was −39.12 (4.47). The “AAS7 Post-baseline Mean (SD)” value (Week 10, ITT) was 12.72 (19.89), the “Non-responder n (%), AAS7 = 0” value (Week 10, omalizumab-naïve) was 19 (54.3) n (%) and the “OR (95% CI) for rilzabrutinib vs. placebo, AAS7 = 0” value (Week 10, omalizumab-naïve) was 0.945. The “RRD (%) … (95% CI), AAS7 = 0” value (Week 10, omalizumab-naïve) was −1.4 %, the “Responder n (%), AAS7 = 0” value (Week 10, omalizumab-naïve) was 16 (45.7) n (%) and the “AAS7 % Change from baseline LS Mean (SE)” value (Week 10, omalizumab-naïve) was −60.11 (16.65) %. The “AAS7 = 0, Non-responder n (%)” value (Week 10, omalizumab-naïve) was 15 (57.7) n (%), the “AAS7 = 0, OR (95% CI)” value (Week 10, omalizumab-naïve) was 1.734 and the “AAS7 = 0, RRD (%) … (95% CI)” value (Week 10, omalizumab-naïve) was 13.1 %. For the same compound, the “AAS7 Post-baseline Mean (SD)” value (Week 10, omalizumab-naïve) was 13.93 (20.43), the “Participants … (%)” value (Week 10, omalizumab-naïve) was 11 (42.3) n (%) and the “AAS7 % Change difference … (95% CI)” value (Week 11, ITT) was −23.43 (−51.36, 4.50) %. The “AAS7 % Change from baseline LS Mean (SE)” value (Week 11, ITT) was −84.81 (10.85) %, the “AAS7 Change difference … (95% CI)” value (Week 11, ITT) was −8.17 (−19.55, 3.20) and the “AAS7 Change from baseline LS Mean (SE)” value (Week 11, ITT) was −42.03 (4.41). The “AAS7 Post-baseline Mean (SD)” value (Week 11, ITT) was 10.31 (18.47), the “Non-responder n (%), AAS7 = 0” value (Week 11, omalizumab-naïve) was 14 (40.0) n (%) and the “OR (95% CI) for rilzabrutinib vs. placebo, AAS7 = 0” value (Week 11, omalizumab-naïve) was 1.516. For the same compound, the “RRD (%) … (95% CI), AAS7 = 0” value (Week 11, omalizumab-naïve) was 10.4 %, the “Responder n (%), AAS7 = 0” value (Week 11, omalizumab-naïve) was 21 (60.0) n (%) and the “AAS7 = 0, Non-responder n (%)” value (Week 11, omalizumab-naïve) was 13 (50.0) n (%). For the same compound, the “AAS7 = 0, OR (95% CI)” value (Week 11, omalizumab-naïve) was 2.010, the “AAS7 = 0, RRD (%) … (95% CI)” value (Week 11, omalizumab-naïve) was 17.8 % and the “AAS7 Post-baseline Mean (SD)” value (Week 11, omalizumab-naïve) was 11.30 (19.07). The “Participants … (%)” value (Week 11, omalizumab-naïve) was 13 (50.0) n (%), the “AAS7 % Change from baseline LS Mean (SE)” value (Week 12, ITT) was −87.51 (10.12) % and the “AAS7 Change difference … (95% CI)” value (Week 12, ITT) was −7.07 (−17.69, 3.54). The “AAS7 Change from baseline LS Mean (SE)” value (Week 12, ITT) was −42.38 (4.13), the “AAS7 Post-baseline Mean (SD)” value (Week 12, ITT) was 10.67 (17.53) and the “patients with angioedema score (AAS7) of 0” value (Week 12, omalizumab-naïve) was 42.3%. The “Non-responder n (%), AAS7 = 0” value (Week 12, omalizumab-naïve) was 18 (51.4) n (%), the “OR (95% CI) for rilzabrutinib vs. placebo, AAS7 = 0” value (Week 12, omalizumab-naïve) was 0.925 and the “RRD (%) … (95% CI), AAS7 = 0” value (Week 12, omalizumab-naïve) was −1.9 %. The “Responder n (%), AAS7 = 0” value (Week 12, omalizumab-naïve) was 17 (48.6) n (%), the “AAS7 = 0, Non-responder n (%)” value (Week 12, omalizumab-naïve) was 15 (57.7) n (%) and the “AAS7 = 0, OR (95% CI)” value (Week 12, omalizumab-naïve) was 1.627. For the same compound, the “AAS7 = 0, RRD (%) … (95% CI)” value (Week 12, omalizumab-naïve) was 11.3 % and the “AAS7 Change difference … (95% CI)” value (Week 12, omalizumab-naïve) was −8.14 (−19.74, 3.45).
